Measurements taken from patent US20240116985A1, “STAPLED PEPTIDES AND METHODS THEREOF” (priority 2020, published 2024).
In brackets after ≈: the same amount, converted by molar mass. Like-named read-outs stand apart in the source and are kept apart here.

Legend:
[1] = Solubility in PBS; assay type: physicochemical
Procedure, shortened: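 Read-out is the HPLC peak area of the supernatant from ultracentrifuged PBS solution, scaled against a 50 μM peptide DMSO injection; value reported as [(PBS area)/(DMSO area)]*50 uM.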

[2] = CHI Log D procedure; assay type: physicochemical
[3] = target: T1, full-length beta-Catenin (Uniprot ID P35222) (Homo sapiens, UniProt P35222); assay: Fluorescence polarization IC50 (beta-catenin / 5FAM-TCF4 10-53 competition); assay type: binding
T1 construct: 10 nM full-length beta-Catenin (Uniprot ID P35222)
T1 sequence (P35222 1-781): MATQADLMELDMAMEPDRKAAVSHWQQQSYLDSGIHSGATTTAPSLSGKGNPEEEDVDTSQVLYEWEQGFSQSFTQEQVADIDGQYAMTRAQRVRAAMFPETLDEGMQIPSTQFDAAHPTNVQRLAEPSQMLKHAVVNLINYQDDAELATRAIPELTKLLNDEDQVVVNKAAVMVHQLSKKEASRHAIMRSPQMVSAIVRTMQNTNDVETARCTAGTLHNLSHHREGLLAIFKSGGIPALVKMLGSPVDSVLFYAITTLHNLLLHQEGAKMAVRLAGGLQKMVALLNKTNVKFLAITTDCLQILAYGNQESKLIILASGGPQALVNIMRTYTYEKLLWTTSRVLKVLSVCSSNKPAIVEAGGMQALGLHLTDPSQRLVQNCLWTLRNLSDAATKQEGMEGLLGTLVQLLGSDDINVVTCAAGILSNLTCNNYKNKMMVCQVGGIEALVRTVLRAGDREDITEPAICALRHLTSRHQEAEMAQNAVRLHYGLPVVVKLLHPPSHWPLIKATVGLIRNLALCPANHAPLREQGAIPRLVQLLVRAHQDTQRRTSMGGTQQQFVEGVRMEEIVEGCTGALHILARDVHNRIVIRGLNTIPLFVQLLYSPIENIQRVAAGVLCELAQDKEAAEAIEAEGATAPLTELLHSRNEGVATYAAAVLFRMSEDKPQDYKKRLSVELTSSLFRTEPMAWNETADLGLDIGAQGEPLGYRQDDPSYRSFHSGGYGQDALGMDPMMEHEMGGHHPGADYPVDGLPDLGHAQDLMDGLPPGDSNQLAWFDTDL

[4] = Table E2-1, read-out: beta-Catenin FP IC50
[5] = fluorescence polarization, beta-catenin, read-out: FP EC50
[6] = fluorescence polarization, read-out: beta-Catenin FP IC50
[7] = FP EC50 (nM), fluorescence polarization, beta-catenin

Row | Solubility [1] | CHI Log D ([2]; pH 7.4) | IC50 ([3]; read-out: beta-Catenin FP IC50) | Solubility ([1]; Solubility (uM)) | chromatographic logD ([2]; pH 7.4, CHI Log D) | SMILES | further results
1 | 50 µM (≈ 99.7 µg/mL) | 1.78 | 399 nM |  |  | CC(=O)N1CCC[C@]12CC=CCCCC1(CCCC=CCCCOC(=O)N3CC[C@@](C(=O)N[C@@H](Cc4ccsc4)C(=O)N[C@@H](Cc4csc5ccccc45)C(=O)N[C@@H](CCC(N)=O)C(N)=O)(C3)NC(=O)[C@H](CC(N)=O)NC(=O)[C@H](Cc3ccccc3)NC(=O)[C@H](C)NC(=O)[C@H](C)NC(=O)[C@H](Cc3cccc(C(=O)O)c3)NC(=O)[C@H](CC(=O)O)NC1=O)NC(=O)[C@H](CC(C)(C)C)NC(=O)[C@H](CC(=O)O)NC2=O (stereo partly drawn) [I-976, Ac-PL3-Asp-Npg-B5-Asp-3COOHF-Ala-Ala-Phe-Asn-PyrS2-3Thi-BztA-Gln-NH2] | IC50 [3, 5]: 399 nM
2 |  |  | 40 nM | 13 µM (≈ 25.7 µg/mL) | 2.62 | CC(=O)N1CCC[C@]12CC=CCCCC1(CCCC=CCCCOC(=O)N3CC[C@@](C(=O)N[C@@H](Cc4ccccc4Cl)C(=O)N[C@@H](Cc4csc5ccccc45)C(=O)N[C@@H](CO)C(N)=O)(C3)NC(=O)[C@H](CC(C)C)NC(=O)[C@H](Cc3ccccc3)NC(=O)[C@H](C)NC(=O)[C@H](C)NC(=O)[C@H](CC(=O)O)NC(=O)[C@H](CC(=O)O)NC1=O)NC(=O)[C@H](Cc1cccc3ccccc13)NC(=O)[C@H](CC(=O)O)NC2=O (stereo partly drawn) [I-1116, Ac-PL3-Asp-1NapA-B5-Asp-Asp-Ala-Ala-Phe-Leu-PyrS2-2C1F-BztA-Ser-NH2] | 
3 | 10 µM (≈ 21 µg/mL) |  | 42 nM |  | 2.64 | CC[C@H](C)[C@@H]1NC(=O)[C@H](C)NC(=O)[C@H](CN(CC(=O)O)CC(F)(F)F)NC(=O)[C@H](CC(=O)O)NC(=O)C2(CCCC=CCCCOC(=O)N3CC[C@@](C(=O)N[C@@H](Cc4ccccc4Cl)C(=O)N[C@@H](Cc4csc5ccccc45)C(=O)N[C@@H](CCC(N)=O)C(N)=O)(C3)NC(=O)[C@H](CC(N)=O)NC(=O)[C@H](Cc3ccccc3)NC1=O)CCCC=CC[C@]1(CCCN1C(C)=O)C(=O)N[C@@H](CC(=O)O)C(=O)N[C@@H](CC(C)(C)C)C(=O)N2 (stereo partly drawn) [I-1005, Ac-PL3-Asp-Npg-B5-Asp-TfeGA-Ala-Ile-Phe-Asn-PyrS2-2C1F-BztA-Gln-NH2] | 
4 |  |  | 471 nM | 43 µM (≈ 84.3 µg/mL) | 1.64 | CC(=O)N1CCC[C@]12CC=CCCCC1(CCCC=CCCCOC(=O)N3CC[C@@](C(=O)N[C@@H](Cc4ccccc4Cl)C(=O)N[C@@H](Cc4csc5ccccc45)C(=O)N[C@@H](CCC(N)=O)C(N)=O)(C3)NC(=O)[C@H](CC(C)C)NC(=O)[C@H](Cc3ccccc3)NC(=O)[C@H](C)NC(=O)[C@H](C)NC(=O)[C@H](CCC(=O)O)NC(=O)[C@H](CC(=O)O)NC1=O)NC(=O)[C@H](CC(C)(C)C)NC(=O)[C@H](CC(=O)O)NC2=O (stereo partly drawn) [I-1063, Ac-PL3-Asp-Npg-B5-Asp-Glu-Ala-Ala-Phe-Leu-PyrS2-2C1F-BztA-Gln-NH2] | 

Continued, molecule first:

Row | SMILES | Solubility [1] | CHI Log D ([2]; pH 7.4) | IC50 ([3]; read-out: beta-Catenin FP IC50) | Solubility ([1]; Solubility (uM)) | chromatographic logD ([2]; pH 7.4, CHI Log D) | further results
5 | CC(=O)N1CCC[C@]12CC=CCCCC1(CCCC=CCCCCCC[C@@](C)(C(=O)N[C@@H](Cc3ccccc3)C(=O)N[C@@H](Cc3c[nH]c4ccccc34)C(=O)N[C@@H](CCC(N)=O)C(N)=O)NC(=O)[C@H](C(C)C)NC(=O)[C@H](Cc3cccc(F)c3)NC(=O)[C@H](C)NC(=O)[C@H](C)NC(=O)[C@H](CC(=O)O)NC(=O)[C@H](CC(=O)O)NC1=O)NC(=O)[C@H](C)NC(=O)[C@H](CC(=O)O)NC2=O (stereo partly drawn) [I-265, Ac-PL3-Asp-Ala-B5-Asp-Asp-Ala-Ala-3FF-Val-S8-Phe-Trp-Gln-NH2] | 36 µM (≈ 64.8 µg/mL) | 2.032 |  |  |  | IC50 [3, 4]: 3760 nM; IC50 [3, 5]: 3760 nM
6 | CC(=O)N1CCC[C@]12CC=CCCCC1(CCCC=CCCCCCC[C@@](C)(C(=O)N[C@@H](Cc3ccccc3)C(=O)N[C@@H](Cc3csc4ccccc34)C(=O)N[C@@H](CCC(N)=O)C(N)=O)NC(=O)[C@H](CC(N)=O)NC(=O)[C@H](Cc3cccs3)NC(=O)[C@H](C)NC(=O)[C@H](C)NC(=O)[C@H](CCC(=O)O)NC(=O)[C@H](CC(=O)O)NC1=O)NC(=O)[C@H](C)NC(=O)[C@H](CC(=O)O)NC2=O (stereo partly drawn) [I-446, Ac-PL3-Asp-Ala-B5-Asp-Glu-Ala-Ala-2Thi-Asn-S8-Phe-BztA-Gln-NH2] | 44 µM (≈ 80.7 µg/mL) | 1.97 |  |  |  | IC50 [3, 6]: 130 nM; IC50 ([3]; read-out: FP EC50): 130 nM
7 | CC(=O)N1CCC[C@]12CC=CCCCC1(CCCC=CCCCOC(=O)N3CC[C@@](C(=O)N[C@@H](Cc4ccsc4)C(=O)N[C@@H](Cc4csc5ccccc45)C(=O)N[C@@H](CCC(N)=O)C(N)=O)(C3)NC(=O)[C@H](CC(N)=O)NC(=O)[C@H](Cc3ccccc3)NC(=O)[C@H](C)NC(=O)[C@H](C)NC(=O)[C@H](CC(=O)O)NC(=O)[C@H](CC(=O)O)NC1=O)NC(=O)[C@H](CCCCNC(=O)CN=[N+]=[N-])NC(=O)[C@H](CC(=O)O)NC2=O (stereo partly drawn) [I-880, Ac-PL3-Asp-[AzAc]Lys-B5-Asp-Asp-Ala-Ala-Phe-Asn-PyrS2-3Thi-BztA-Gln-NH2] | 42 µM (≈ 84.1 µg/mL) |  |  |  |  | chromatographic logD ([2]; pH 7.4): 1.72; IC50 [3, 7]: 6 nM
8 | CC(=O)N1CCC[C@]12CC=CCCCC1(CCCC=CCCCCCC[C@@](C)(C(=O)N[C@@H](Cc3ccccc3)C(=O)N[C@@H](Cc3csc4ccccc34)C(=O)N[C@@H](CCC(N)=O)C(N)=O)NC(=O)[C@H](C(C)C)NC(=O)[C@H](Cc3cccc(C(F)(F)F)c3)NC(=O)[C@H](C)NC(=O)[C@H](C)NC(=O)[C@H](CC(=O)O)NC(=O)[C@H](CC(=O)O)NC1=O)NC(=O)[C@H](C)NC(=O)[C@H](CC(=O)O)NC2=O (stereo partly drawn) [I-373, Ac-PL3-Asp-Ala-B5-Asp-Asp-Ala-Ala-3F3MeF-Val-S8-Phe-BztA-Gln-NH2] |  |  |  | 26 µM (≈ 48.5 µg/mL) | 2.3 | IC50 [3, 4]: 945 nM
9 | CC(=O)N1CCC[C@]12CC=CCCCC1(CCCC=CCCCOC(=O)N3CC[C@@](C(=O)N[C@@H](Cc4ccsc4)C(=O)N[C@@H](Cc4csc5ccccc45)C(=O)N[C@@H](CCC(N)=O)C(N)=O)(C3)NC(=O)[C@H](CC(N)=O)NC(=O)[C@H](Cc3ccccc3)NC(=O)[C@H](C)NC(=O)[C@H](CCCCNC(=O)CN=[N+]=[N-])NC(=O)[C@H](CC(=O)O)NC(=O)[C@H](CC(=O)O)NC1=O)NC(=O)[C@H](CC(C)(C)C)NC(=O)[C@H](CC(=O)O)NC2=O (stereo partly drawn) [I-879, Ac-PL3-Asp-Npg-B5-Asp-Asp-[AzAc]Lys-Ala-Phe-Asn-PyrS2-3Thi-BztA-Gln-NH2] | 45 µM (≈ 92.6 µg/mL) |  |  |  |  | chromatographic logD ([2]; pH 7.4): 2; IC50 [3, 7]: 6 nM
10 | CC[C@H](C)[C@@H]1NC(=O)[C@H](CC(=O)O)NC(=O)[C@]2(CC=CCCCC3(CCCC=CCCCCCC[C@@](C)(C(=O)N[C@@H](Cc4ccccc4)C(=O)N[C@@H](Cc4csc5ccccc45)C(=O)N[C@@H](CCC(N)=O)C(N)=O)NC(=O)[C@H](CCC(N)=O)NC(=O)[C@H](CC4CCCCC4)NC(=O)[C@H](C)NC(=O)[C@H](C)NC(=O)[C@H](CCC(=O)O)NC(=O)[C@H](CC(=O)O)NC3=O)NC1=O)CCCN2C(C)=O (stereo partly drawn) [I-722, Ac-PL3-Asp-Ile-B5-Asp-Glu-Ala-Ala-Cha-Gln-S8-Phe-BztA-Gln-NH2] |  |  |  | 27 µM (≈ 51 µg/mL) | 2.52 | IC50 [3, 6]: 1130 nM
11 | CC(=O)N1CCC[C@]12CC=CCCCC1(CCCC=CCCCCCC[C@@](C)(C(=O)N[C@@H](Cc3ccccc3)C(=O)N[C@@H](Cc3csc4ccccc34)C(=O)N[C@@H](CCC(N)=O)C(N)=O)NC(=O)[C@H](CCC(N)=O)NC(=O)[C@H](Cc3ccccc3)NC(=O)[C@H](C)NC(=O)[C@H](C)NC(=O)[C@H](CCC(=O)O)NC(=O)[C@H](Cc3nn[nH]n3)NC1=O)NC(=O)[C@H](C)NC(=O)[C@H](CC(=O)O)NC2=O (stereo partly drawn) [I-415, Ac-PL3-Asp-Ala-B5-tetz-Glu-Ala-Ala-Phe-Gln-S8-Phe-BztA-Gln-NH2] | 45 µM (≈ 83.9 µg/mL) | 2.125 |  |  |  | IC50 [3, 6]: 2200 nM; IC50 ([3]; read-out: FP EC50): 2200 nM
